# From PubChem BioAssay AID1963843 (Molecular Pharmacology Branch, DTP, NCI, 2024)
# System: 616215-338-R-J1-PDC complex spheroid viability
# Test: Anticancer human tumor 616215-338-R-J1-PDC patient-derived colon adenocarcinoma cell line growth inhibition [POLQ]
# Conditions: for IC50: curve of first compound; for viability, T/C: stronger effect = lower value
# Summary of the method: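 Growth inhibition in 3D: complex spheroids (tumor PDC, HUVEC, MSC) treated with POLQ inhibitor combinations; where Cmax unknown, highest tested concentration 10 microM, except SN-38 at 1 microM.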
# 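Also: spheroids exposed to compounds for one week before readout.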
# 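For viability, T/C in this document: percent viability relative to DMSO vehicle wells taken as 100%.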
smiles,measurement,setting,value
CC(=O)O[C@H]1C(=O)[C@@]2(C)[C@H]([C@H](OC(=O)c3ccccc3)[C@]3(O)C[C@H](OC(=O)[C@H](O)[C@@H](NC(=O)c4ccccc4)c4ccccc4)C(C)=C1C3(C)C)[C@]1(OC(C)=O)CO[C@@H]1C[C@@H]2O + Nc1ccc(C#CCN(C(=O)Cc2ncc(C(F)(F)F)cc2C(F)(F)F)c2ccc(F)cc2)nn1,IC50,second compound 0.0316 µM,< 9.49 nM
same,IC50,second compound 0.1 µM,< 9.49 nM
same,IC50,second compound 0.316 µM,< 9.49 nM
same,IC50,second compound 1 µM,< 9.49 nM
same,IC50,second compound 3.16 µM,< 9.49 nM
same,IC50,second compound 10 µM,< 9.49 nM
same,"viability, T/C","second compound 0.0316 µM, first compound 0.00949 µM",38.1%
same,"viability, T/C","second compound 0.0316 µM, first compound 0.03 µM",25.5%
same,"viability, T/C","second compound 0.0316 µM, first compound 0.0949 µM",22.9%
same,"viability, T/C","second compound 0.0316 µM, first compound 0.3 µM",18.4%
same,"viability, T/C","second compound 0.0316 µM, first compound 0.949 µM",16.6%
same,"viability, T/C","second compound 0.0316 µM, first compound 3 µM",17.7%
same,"viability, T/C","second compound 0.1 µM, first compound 0.00949 µM",50%
same,"viability, T/C","second compound 0.1 µM, first compound 0.03 µM",24.6%
same,"viability, T/C","second compound 0.1 µM, first compound 0.0949 µM",21.3%
same,"viability, T/C","second compound 0.1 µM, first compound 0.3 µM",17.4%
same,"viability, T/C","second compound 0.1 µM, first compound 0.949 µM",17.6%
same,"viability, T/C","second compound 0.1 µM, first compound 3 µM",19%
same,"viability, T/C","second compound 0.316 µM, first compound 0.00949 µM",42.3%
same,"viability, T/C","second compound 0.316 µM, first compound 0.03 µM",22.4%
same,"viability, T/C","second compound 0.316 µM, first compound 0.0949 µM",20.9%
same,"viability, T/C","second compound 0.316 µM, first compound 0.3 µM",19.1%
same,"viability, T/C","second compound 0.316 µM, first compound 0.949 µM",16.8%
same,"viability, T/C","second compound 0.316 µM, first compound 3 µM",14.8%
same,"viability, T/C","second compound 1 µM, first compound 0.00949 µM",41.1%
same,"viability, T/C","second compound 1 µM, first compound 0.03 µM",25%
same,"viability, T/C","second compound 1 µM, first compound 0.0949 µM",24.1%
same,"viability, T/C","second compound 1 µM, first compound 0.3 µM",26.1%
same,"viability, T/C","second compound 1 µM, first compound 0.949 µM",14%
same,"viability, T/C","second compound 1 µM, first compound 3 µM",16.6%
same,"viability, T/C","second compound 3.16 µM, first compound 0.00949 µM",30.2%
same,"viability, T/C","second compound 3.16 µM, first compound 0.03 µM",22.1%
same,"viability, T/C","second compound 3.16 µM, first compound 0.0949 µM",22.4%
same,"viability, T/C","second compound 3.16 µM, first compound 0.3 µM",20.2%
same,"viability, T/C","second compound 3.16 µM, first compound 0.949 µM",16.5%
same,"viability, T/C","second compound 3.16 µM, first compound 3 µM",15.1%
same,"viability, T/C","second compound 10 µM, first compound 0.00949 µM",36.9%
same,"viability, T/C","second compound 10 µM, first compound 0.03 µM",25%
same,"viability, T/C","second compound 10 µM, first compound 0.0949 µM",23.3%
same,"viability, T/C","second compound 10 µM, first compound 0.3 µM",18.4%
same,"viability, T/C","second compound 10 µM, first compound 0.949 µM",18.1%
same,"viability, T/C","second compound 10 µM, first compound 3 µM",21.6%
CC[C@@]1(O)C(=O)OCc2c1cc1n(c2=O)Cc2cc3c(CN(C)C)c(O)ccc3nc2-1 + Nc1ccc(C#CCN(C(=O)Cc2ncc(C(F)(F)F)cc2C(F)(F)F)c2ccc(F)cc2)nn1,IC50,second compound 0.0316 µM,69.9 nM
same,IC50,second compound 0.1 µM,73 nM
same,IC50,second compound 0.316 µM,66.3 nM
same,IC50,second compound 1 µM,66.6 nM
same,IC50,second compound 3.16 µM,59.4 nM
same,IC50,second compound 10 µM,46.1 nM
same,"viability, T/C","second compound 0.0316 µM, first compound 0.000316 µM",112%
same,"viability, T/C","second compound 0.0316 µM, first compound 0.001 µM",105%
same,"viability, T/C","second compound 0.0316 µM, first compound 0.00316 µM",100%
same,"viability, T/C","second compound 0.0316 µM, first compound 0.01 µM",101%
same,"viability, T/C","second compound 0.0316 µM, first compound 0.0316 µM",89.4%
same,"viability, T/C","second compound 0.0316 µM, first compound 0.1 µM",32.3%
same,"viability, T/C","second compound 0.1 µM, first compound 0.000316 µM",103%
same,"viability, T/C","second compound 0.1 µM, first compound 0.001 µM",103%
same,"viability, T/C","second compound 0.1 µM, first compound 0.00316 µM",98.1%
same,"viability, T/C","second compound 0.1 µM, first compound 0.01 µM",102%
same,"viability, T/C","second compound 0.1 µM, first compound 0.0316 µM",83.4%
same,"viability, T/C","second compound 0.1 µM, first compound 0.1 µM",37.5%
same,"viability, T/C","second compound 0.316 µM, first compound 0.000316 µM",111%
same,"viability, T/C","second compound 0.316 µM, first compound 0.001 µM",119%
same,"viability, T/C","second compound 0.316 µM, first compound 0.00316 µM",98.6%
same,"viability, T/C","second compound 0.316 µM, first compound 0.01 µM",99.3%
same,"viability, T/C","second compound 0.316 µM, first compound 0.0316 µM",79.8%
same,"viability, T/C","second compound 0.316 µM, first compound 0.1 µM",33.6%
same,"viability, T/C","second compound 1 µM, first compound 0.000316 µM",108%
same,"viability, T/C","second compound 1 µM, first compound 0.001 µM",96.6%
same,"viability, T/C","second compound 1 µM, first compound 0.00316 µM",107%
same,"viability, T/C","second compound 1 µM, first compound 0.01 µM",104%
same,"viability, T/C","second compound 1 µM, first compound 0.0316 µM",66.1%
same,"viability, T/C","second compound 1 µM, first compound 0.1 µM",41.1%
same,"viability, T/C","second compound 3.16 µM, first compound 0.000316 µM",97.9%
same,"viability, T/C","second compound 3.16 µM, first compound 0.001 µM",108%
same,"viability, T/C","second compound 3.16 µM, first compound 0.00316 µM",98.2%
same,"viability, T/C","second compound 3.16 µM, first compound 0.01 µM",98.3%
same,"viability, T/C","second compound 3.16 µM, first compound 0.0316 µM",75.3%
same,"viability, T/C","second compound 3.16 µM, first compound 0.1 µM",29.1%
same,"viability, T/C","second compound 10 µM, first compound 0.000316 µM",85.5%
same,"viability, T/C","second compound 10 µM, first compound 0.001 µM",90.1%
same,"viability, T/C","second compound 10 µM, first compound 0.00316 µM",96.4%
same,"viability, T/C","second compound 10 µM, first compound 0.01 µM",94.2%
same,"viability, T/C","second compound 10 µM, first compound 0.0316 µM",55.8%
same,"viability, T/C","second compound 10 µM, first compound 0.1 µM",38%
